From US10093683B2, “Factor XIa inhibitors” (Merck Sharp & Dohme Corp., priority 2014, dated 2018)

Tests used:
[1] = molecular target: Human plasma kallikrein (Homo sapiens (Human), UniProt P03952); experiment: Kallikrein Assay; type: biochemical; conditions: purified Human plasma kallikrein 0.5 nM, Acetyl-K-P-R-AFC, pH 7.4; Ki from IC50 by Cheng Prusoff
In short: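 Purified human plasma kallikrein (0.5 nM final) with Acetyl-K-P-R-AFC substrate ([…]) in 50 mM HEPES pH 7.4, 150 mM NaCl, 5 mM CaCl2, 0.1% PEG 8000, after enzyme-inhibitor equilibration. Fluorescence (405 ex/510 em) under linear conditions; IC50 from four-parameter fit, converted to Ki by Cheng-Prusoff.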

[2] = molecular target: human Factor XIa (Homo sapiens (Human), UniProt P03951); experiment: Factor XIa Assay; type: biochemical; conditions: read-out: FXIa Ki
In short: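 Ki derived from the dependence of Vo/Vi on inhibitor concentration under a competitive-inhibition model, after pre-equilibration of enzyme and inhibitor. Reaction: 40 pM human FXIa, 100 μM Z-Gly-Pro-Arg-AFC, HEPES 50 mM pH 7.4 with NaCl, CaCl2 and PEG 8000; run at room temperature or 37° C.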

Sequence of human Factor XIa (P03951 388-625): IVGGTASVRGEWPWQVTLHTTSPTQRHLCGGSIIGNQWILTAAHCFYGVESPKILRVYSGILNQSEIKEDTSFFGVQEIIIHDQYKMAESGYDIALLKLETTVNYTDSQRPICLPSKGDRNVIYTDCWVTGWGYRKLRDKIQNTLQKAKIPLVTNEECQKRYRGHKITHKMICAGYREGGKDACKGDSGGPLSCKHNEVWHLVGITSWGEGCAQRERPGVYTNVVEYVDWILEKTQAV
Sequence of human Factor XIa (P03951 19-387 partner): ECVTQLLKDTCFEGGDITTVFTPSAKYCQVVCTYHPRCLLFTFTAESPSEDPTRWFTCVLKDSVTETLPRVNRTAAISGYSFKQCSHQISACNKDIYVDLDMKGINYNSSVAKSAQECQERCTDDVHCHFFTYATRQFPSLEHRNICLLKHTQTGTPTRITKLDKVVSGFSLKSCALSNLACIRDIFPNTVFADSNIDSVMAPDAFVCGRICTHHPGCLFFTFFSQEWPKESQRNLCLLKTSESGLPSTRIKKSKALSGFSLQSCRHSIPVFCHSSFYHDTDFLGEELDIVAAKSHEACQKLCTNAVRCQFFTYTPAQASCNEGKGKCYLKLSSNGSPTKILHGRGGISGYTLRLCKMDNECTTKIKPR
Sequence of Human plasma kallikrein (P03952 391-638): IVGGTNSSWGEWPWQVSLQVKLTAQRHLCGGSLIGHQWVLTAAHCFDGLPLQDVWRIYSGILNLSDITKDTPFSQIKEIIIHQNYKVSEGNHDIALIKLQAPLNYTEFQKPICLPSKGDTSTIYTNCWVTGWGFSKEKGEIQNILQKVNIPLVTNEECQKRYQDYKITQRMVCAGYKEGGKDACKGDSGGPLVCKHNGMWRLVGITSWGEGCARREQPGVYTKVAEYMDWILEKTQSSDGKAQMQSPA
Sequence of Human plasma kallikrein (P03952 20-390 partner): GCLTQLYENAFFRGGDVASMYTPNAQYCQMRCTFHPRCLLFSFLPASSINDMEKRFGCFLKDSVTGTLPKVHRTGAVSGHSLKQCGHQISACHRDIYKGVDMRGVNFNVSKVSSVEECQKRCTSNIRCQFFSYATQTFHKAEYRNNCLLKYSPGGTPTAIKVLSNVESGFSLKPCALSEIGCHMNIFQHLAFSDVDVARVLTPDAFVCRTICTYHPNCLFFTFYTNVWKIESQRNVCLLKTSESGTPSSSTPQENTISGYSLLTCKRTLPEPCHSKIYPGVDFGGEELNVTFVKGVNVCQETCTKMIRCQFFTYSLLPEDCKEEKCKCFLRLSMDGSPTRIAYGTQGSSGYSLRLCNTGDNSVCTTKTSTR

Cc1[nH]c2ccc(C(=O)N[C@@H](Cc3ccccc3)C(=O)N3CCC[C@@]4(C3)OC(=O)Nc3ccc(Cl)cc34)cc2c1C(=O)O [Example 249]
Ki [1]: < 1.36 nM | Ki [2]: 2.02 nM

Cc1cc2cc(C(=O)N[C@@H](Cc3ccccc3)C(=O)N3CCC[C@@]4(C3)OC(=O)Nc3ccc(Cl)cc34)ccc2[nH]1 [Example 250]
Ki [1]: 13.3 nM | Ki [2]: 41.9 nM

O=C1CCc2cc(C(=O)N[C@@H](CC3CC3)C(=O)N3CCC[C@@]4(C3)OC(=O)Nc3ccc(Cl)c(F)c34)ccc2N1 [Example 251]
Ki [1]: < 1.36 nM | Ki [2]: 5.72 nM

Nc1n[nH]c2cc(C(=O)N[C@@H](CC3CC3)C(=O)N3CCC[C@@]4(C3)OC(=O)Nc3ccc(Cl)c(F)c34)ccc12 [Example 254]
Ki [1]: 0.83 nM | Ki [2]: 2.11 nM

O=C1Nc2ccc(Cl)c(F)c2[C@@]2(CCCN(C(=O)[C@H](CC3CC3)NC(=O)c3ccc4[nH]c(=O)ccc4c3)C2)O1 [Example 255]
Ki [1]: 0.45 nM | Ki [2]: 4 nM

O=C1Nc2ccc(Cl)c(F)c2[C@@]2(CCCN(C(=O)[C@H](Cc3ccccc3)NC(=O)c3ccc4[nH]nc(C(F)(F)F)c4c3)C2)O1 [Example 256, N—((S)-1-((R)-6-chloro-5-fluoro-2-oxo-1,2-dihydrospiro[benzo[d][1,3]oxazine-4,3′-piperidin]-1′-yl)-1-oxo-3-phenylpropan-2-yl)-3-(trifluoromethyl)-1H-indazole-5-carboxamide]
Ki [1]: 31 nM | Ki [2]: > 875 nM

O=C1Nc2ccc(Cl)c(F)c2[C@@]2(CCCN(C(=O)[C@H](Cc3ccccc3)NC(=O)c3ccc4[nH]c(=O)ccc4c3)C2)O1 [Example 257]
Ki [1]: 0.57 nM | Ki [2]: 0.78 nM

Nc1n[nH]c2cc(C(=O)N[C@@H](Cc3ccncc3)C(=O)N3CC[C@@]4(C3)OC(=O)Nc3ccc(Cl)cc34)ccc12 [Example 258]
Ki [1]: 4.08 nM | Ki [2]: 1.73 nM

Nc1cc(C(=O)N[C@@H](Cc2ccccc2)C(=O)N2CCC3(C2)OC(=O)Nc2ccc(Cl)cc23)cc2[nH]cnc12 (stereo partly shown) [Example 260]
Ki [1]: 130 nM | Ki [2]: 77.9 nM

Nc1n[nH]c2cc(C(=O)N[C@@H](CC(=O)N3CCC3)C(=O)N3CCC[C@@]4(C3)OC(=O)Nc3ccc(Cl)cc34)ccc12 [Example 266]
Ki [1]: 1.22 nM | Ki [2]: 3.82 nM

O=C1Nc2ccc(Cl)c(F)c2[C@@]2(CCCN(C(=O)[C@H](Cc3ccc(F)cc3)NC(=O)c3cc(F)c(C(=O)C(=O)O)s3)C2)O1 [Example 267, 2-(5-(((S)-1-((R)-6-chloro-5-fluoro-2-oxo-1,2-dihydrospiro[benzo[d][1,3]oxazine-4,3′-piperidin]-1′-yl)-3-(4-fluorophenyl)-1-oxopropan-2-yl)carbamoyl)-3-fluorothiophen-2-yl)-2-oxoacetic acid]
Ki [1]: 0.29 nM | Ki [2]: 0.7 nM

Nc1n[nH]c2cc(C(=O)N[C@@H](CC(=O)N3CCCC3)C(=O)N3CCC[C@@]4(C3)OC(=O)Nc3ccc(Cl)cc34)ccc12 [Example 268]
Ki [1]: 0.9 nM | Ki [2]: 0.85 nM

CC(C)(O)C[C@H](NC(=O)c1ccc2c(N)n[nH]c2c1)C(=O)N1CCC[C@@]2(C1)OC(=O)Nc1ccc(Cl)cc12 [Example 269]
Ki [1]: 3 nM | Ki [2]: 5 nM

O=C(Nc1ccc(C(=O)N[C@@H](Cc2ccc(F)cc2)C(=O)N2CCC[C@@]3(C2)OC(=O)Nc2ccc(Cl)c(F)c23)cc1)OCCc1nnn[nH]1 [Example 274, 2-(1H-tetrazol-5-yl)ethyl (4-(((S)-1-((R)-6-chloro-5-fluoro-2-oxo-1,2-dihydrospiro[benzo[d][1,3]oxazine-4,3′-piperidin]-1′-yl)-3-(4-fluorophenyl)-1-oxopropan-2-yl)carbamoyl)phenyl)carbamate]
Ki [1]: 0.65 nM | Ki [2]: 3.22 nM
